Legend:
[1] = system: Cholesterol Biosynthesis in CHO Cells; experiment: In Vitro Assay for Inhibition of Cholesterol Biosynthesis in CHO Cells; type: cell-based, Chinese Hamster; conditions: Cricetulus griseus, 14C-acetate incorporation into cholesterol, 16-18 h incubation with compound
Protocol: Chinese Hamster ovary (CHO) cells were seeded at 1×10^5 cells per 60-mm Petri dish and incubated at 37° C. in F-12 medium supplemented with fetal calf serum (5%). After 24 h, the medium was aspirated and replaced with delipidated calf serum in F-12 medium containing the test compounds. At various concentrations, either ethanol or dimethyl sulfoxide was used to dissolve the test compounds to a final concentration of 0.1% in the cell medium. Controls contained the vehicle alone. After incubation for 16-18 h, ^14 C-acetate (20 μM final concentration) was added and incubation continued for 5.5 h. […] The cells were then scraped off the plates with a rubber policeman into saline (2 mL). An aliquot for protein was taken, and the remainder of the cell suspension was centrifuged at 800×g for 10 min. The supernatant was discarded and the pellet extracted by vortexing 15 s in chloroform:methanol (2 mL of 2:1). […] NaCl (0.4 mL) was added, vortexed, and centrifuged, and the top layer was discarded. A portion of the upper phase mixture of chloroform:methanol:water (0.4 mL of 3:48:47) was added and gently swirled to avoid mixing with the bottom layer. The resultant samples were centrifuged, and the top layer was discarded. The procedure was repeated before methanol was finally added to combine the two layers and the solvent was evaporated. Chloroform (200 μL) was added to the residue and an aliquot (150 μL) taken. To the aliquot was added cholesterol (40 μg in 20 μL), and the samples were concentrated. The lipids were dissolved in chloroform (50 μL) and spotted on silica gel G thin-layer chromatography plates. After development in hexane:ether:acetic acid (80:20:1), the ^14 C-cholesterol spot was located with iodine vapor and scraped into a scintillation vial, and the radioactivity was counted with a scintillation counter.

Cholesterol Biosynthesis = experiment: In Vivo Cholesterol Biosynthesis Inhibition in Rats with Oral Administration of Test Compounds (compound 13, gavage); parameters: species or system Male Sprague-Dawley rats; conditions: rat plasma, 7 days; for 14C-Acetate Incorporation / Cholesterol Levels, HDL / 14C-Acetate Incorporation, Inhibition: gavage; for 14C-Acetate Incorporation: control 1200 ± 95; for Cholesterol Levels, HDL / Cholesterol Levels, Total: mean ± S.E.; for Cholesterol Levels, HDL: control 32 ± 2.1; for 14C-Acetate Incorporation, Inhibition: vs control; for Cholesterol Levels, Total: three daily doses via gavage, control 77.6 ± 2.3
Protocol: (b.) In Vivo Cholesterol Biosynthesis Inhibition in Rats with Oral Administration of Test Compounds:
Male Sprague-Dawley rats weighing 120 to 150 g were used. The animals were placed on a cholesterol-free diet immediately upon arrival and housed in a room with a reverse light cycle. One week after they had adapted to the light cycle, the experiment was begun by gavaging the animals three times daily with various amounts of test compound 13 suspended in 1.0 mL of saline. The control group received 1.0 mL of saline alone. On the seventh day of the experiment, sodium 1-^14 C! acetate (20 μCi/rat) was injected intraperitoneally 30 min after the oral administration (gavage) of test compounds and 2 h before the mid-dark point in the diurnal cycle; 4 h after the ^14 C-acetate injection, the animals were killed and blood samples were collected after decapitation. Plasma was obtained by centrifuging blood in an EDTA-treated centrifuge tube at 3000 rpm for 10 min. Cholesterol synthesis was measured by determining the level of ^14 C-labeled nonsaponifiable lipid present in 1.0 mL of plasma; 1.0 mL of plasma was first mixed with 1.0 mL of saline, followed by 5.0 mL of 10% KOH in absolute ethanol. Samples were saponified at 75° C. for 1 h. After cooling, 44,000 dpm, 0.5 nmol of 1,2-^3 H! cholesterol was added to each sample as an internal standard for calculating recovery through the extraction procedure. Samples were extracted once with 5 mL of petroleum ether, and the organic phase was backwashed with 5 mL of saline. The extracts were dried on a nitrogen evaporator, and the residue was reconstituted into 0.5 mL of CHCl3 -MeOH (2:1). The 0.5-mL reconstituted samples were transferred into counting vials containing 2 mL of ethanol, and both ^3 H and ^14 C were counted in 10 mL of scintillation fluid. The ^3 H-cholesterol internal standard recovery value from each sample was used to correct each sample to 100% recovery of ^14 C-cholesterol. The total cholesterol level and HDL in each plasma sample was also measured. The comparison between test groups and the control group was evaluated for both cholesterol levels and ^14 C-acetate incorporation.

[2] = system: Cholesterol Levels in Plasma of Rats; experiment: Assay for Lowering Cholesterol Levels in Rats Fed Drug-Containing Food Ad Libitum; type: in vivo, Male Sprague-Dawley rats; conditions: rat plasma, mean ± S.E.
Protocol: (d.) Assay for Lowering Cholesterol Levels in Rats Fed Drug-Containing Food Ad Libitum:
Male Sprague-Dawley rats weighing 150 to 200 g were used for this experiment. The animals were divided into groups of six rats each. All groups were kept on a cholesterol-free diet throughout the entire experiment. This diet was prepared by adding the test compound in small portions (usually 100 mg) to 100 g of choleserol-free diet in a 1-liter glass separatory funnel with a stopper. The diet was thoroughly mixed after each addition of the test compound. The resulting diet was kept in a refrigerator at all times. Before feeding, the diet was allowed to warm to room temperature. The animals were housed individually in metabolic cages. All test groups were allowed free access to the cholesterol-free diet containing the proper doses of the test compound. A pair-fed group was assigned to each test group and allowed free access to the cholesterol-free diet only in the amount consumed by its corresponding counterpart on the previous day. The control group was allowed free access to the cholesterol-free diet with no restriction. The food consumption and body weights of all groups were recorded daily. Blood samples were taken from all groups on day 0 and every third or fourth day throughout the entire experiment. Plasma was obtained by drawing blood into EDTA-treated centrifuge tubes and centrifuging at 3000 rpm for 10 min. The total cholesterol level and HDL in each plasma sample were determined using a Gemini autoanalyzer.

[3] = Day 0, cholesterol-free diet containing 0.2% inhibitor, control 29 ± 0.9
[4] = Day 0, cholesterol-free diet containing 0.2% inhibitor, control 70 ± 1
[5] = Day 4, cholesterol-free diet containing 0.2% inhibitor, control 28 ± 2
[6] = Day 4, cholesterol-free diet containing 0.2% inhibitor, control 77 ± 2
[7] = Day 7, cholesterol-free diet containing 0.2% inhibitor, control 26 ± 2
[8] = Day 7, diet containing 0.2% inhibitor, control 76 ± 4, ^b significantly lower than Day 0 (P < 0.001), pair-fed (P < 0.005) and control (P < 0.001), ^c significantly lower than pair-fed (P < 0.02)
[9] = Day 10, cholesterol-free diet containing 0.2% inhibitor, control 32 ± 1.5
[10] = Day 10, cholesterol-free diet containing 0.2% inhibitor, control 81 ± 3

## CC(C)CCC[C@@H](C)[C@H]1Cc2n[n+]([O-])c3c4c2[C@]1(C)CC[C@@H]4[C@@]1(C)CC[C@H](O)C[C@@H]1C3
[1]
  IC50: < 250 nM

## CC(C)CCC[C@@H](C)[C@H]1Cc2nnc3c4c2[C@]1(C)CC[C@@H]4[C@@]1(C)CC[C@H](O)C[C@@H]1C3 [Compound 13, pyridazino 3',4',5',6':7,8,14,15!5α-cholestan-3β-ol]
Cholesterol Biosynthesis; 0.16 mg/rat/day
  14C-Acetate Incorporation: 696 ± 107 cpm/ml
  Cholesterol Levels, HDL: 44.0 ± 10.6 Mg/100 ml
  14C-Acetate Incorporation, Inhibition: 42%
  Cholesterol Levels, Total: 66.8 ± 3.4 Mg/100 ml
Cholesterol Biosynthesis; 0.33 mg/rat/day
  14C-Acetate Incorporation: 510 ± 122 cpm/ml
  Cholesterol Levels, HDL: 27.6 ± 3.5 Mg/100 ml
  14C-Acetate Incorporation, Inhibition: 58%
  Cholesterol Levels, Total: 62.6 ± 2.4 Mg/100 ml
Cholesterol Biosynthesis; 1.0 mg/rat/day
  14C-Acetate Incorporation: 385 ± 47 cpm/ml
  Cholesterol Levels, HDL: 28.6 ± 1.9 Mg/100 ml
  14C-Acetate Incorporation, Inhibition: 68%
  Cholesterol Levels, Total: 61.4 ± 3.0 Mg/100 ml
Cholesterol Biosynthesis; 3.0 mg/rat/day
  14C-Acetate Incorporation: 383 ± 38 cpm/ml
  Cholesterol Levels, HDL: 28.8 ± 4.3 Mg/100 ml
  14C-Acetate Incorporation, Inhibition: 69%
  Cholesterol Levels, Total: 60.8 ± 0.9 Mg/100 ml
Cholesterol Biosynthesis; 7.5 mg/rat/day
  14C-Acetate Incorporation: 340 ± 50 cpm/ml
  Cholesterol Levels, HDL: 14.3 ± 0.33 Mg/100 ml
  14C-Acetate Incorporation, Inhibition: 72%
  Cholesterol Levels, Total: 44.0 ± 1.0 Mg/100 ml
[2]; [3]
  Cholesterol levels, LDL: 34 ± 1.8 mg/100 mL
[2]; [4]
  Cholesterol Levels, Total: 74 ± 1 mg/100 mL
[2]; [5]
  Cholesterol levels, LDL: 28 ± 2 mg/100 mL
[2]; [6]
  Cholesterol Levels, Total: 62 ± 2 mg/100 mL
[2]; [7]
  Cholesterol levels, LDL: 17 ± 3 mg/100 mL
[2]; [8]
  Cholesterol Levels, Total: 46 ± 3 mg/100 mL
[2]; [9]
  Cholesterol levels, LDL: 29 ± 2 mg/100 mL
[2]; [10]
  Cholesterol Levels, Total: 47 ± 5 mg/100 mL

## CC(C)CCC[C@@H](C)[C@H]1CC(=O)C2=C3CC[C@H]4C[C@@H](O)CC[C@]4(C)[C@H]3CC[C@@]21C [Compound 27, 3β-Hydroxy-5α-cholest-8(14)-ene-15-one, reference compound]
[2]; [3]
  Cholesterol levels, LDL: 34 ± 2 mg/100 mL
[2]; [4]
  Cholesterol Levels, Total: 74 ± 3 mg/100 mL
[2]; [5]
  Cholesterol levels, LDL: 31 ± 2 mg/100 mL
[2]; [6]
  Cholesterol Levels, Total: 69 ± 2 mg/100 mL
[2]; [7]
  Cholesterol levels, LDL: 23 ± 2 mg/100 mL
[2]; [8]
  Cholesterol Levels, Total: 48 ± 4 mg/100 mL
[2]; [9]
  Cholesterol levels, LDL: 41 ± 1.5 mg/100 mL
[2]; [10]
  Cholesterol Levels, Total: 66 ± 2 mg/100 mL

## CC(C)CCC[C@@H](C)[C@H]1CC(=O)C2=C3CC[C@H]4C[C@@H](O)CC[C@]4(C)[C@H]3CC[C@@]21C [drawing 26]
[1]
  IC50: 1400 nM

## CC(C)CCC[C@@H](C)[C@H]1Cc2nnc3c4c2[C@]1(C)CC[C@@H]4[C@@]1(C)CC[C@H](O)C[C@@H]1C3 [drawing 35]
[1]
  IC50: 90 nM

## CC(C)CCC[C@@H](C)[C@H]1Cc2cnc3c4c2[C@]1(C)CC[C@@H]4[C@@]1(C)CC[C@H](O)C[C@@H]1C3 [drawing 39]
[1]
  IC50: 50 nM
